This note sets out measurements from patent publication US6841530B2, “Semi-synthetic studies toward didemnin analogues” (The Board of Trustees of the University of Illinois, priority 1996, dated 2005).

The nature of data set [1]: Cytotoxicity of didemnins (Table II). In kind it is cell-based. The settings on record: for IC50: cytotoxicity.
The test system of a further data set is HSV. In words: Antiviral activities of didemnins, HSV/CV-1. In kind it is cell-based. Also noted: key: +++ = complete inhibition; ++ = strong inhibition; + = moderate inhibition; − = no inhibition.
The test system of the next data set is CV-1. Briefly: Cytotoxicity score in the HSV/CV-1 antiviral assay. The settings on record: scale 0 (least toxic) to 16 (toxic).

The structures appear in SMILES notation. ≈ marks a conversion by molar mass, not a printed value. Starred links: 1 amine or outer side, 2 acyl side, 3 side chain; linkers in the order of their positions; H or OH if unused. Positions of bridges follow the written chain, without caps; N, C: chain ends. Non-standard residues stand in square brackets, D forms with d. Residues, ends and D or L forms follow the SMILES beside them. *: point of attachment. X1 = CC[C@H](C)[C@@H](N[*:1])[C@@H](O)CC(=O)O[C@H](C(=O)[C@H](C)C(=O)[*:2])C(C)C; NMeY = CN[C@@H](Cc1ccc(O)cc1)C(=O)O; dNMeL = CN[C@H](CC(C)C)C(=O)O; Pyruvoyl = CC(=O)C(=O)*; Cbz = O=C(OCc1ccccc1)*; Boc = CC(C)(C)OC(=O)*; Lac = C[C@H](O)C(=O)O

The term IC50 denotes the concentration that gives 50% inhibition. For `CC[C@H](C)[C@H]1NC(=O)[C@@H](NC(=O)[C@@H](CC(C)C)N(C)C(=O)[C@@H]2CCCN2C(=O)OC(C)(C)C)[C@@H](C)OC(=O)[C@H](Cc2ccc(OC)cc2)N(C)C(=O)[C@@H]2CCCN2C(=O)[C@H](CC(C)C)NC(=O)[C@@H](C)C(=O)[C@H](C(C)C)OC(=O)C[C@@H]1O` [Boc-Pro-didemnin A (158), Boc-L-prolyl-didemnin A] (Boc-P[dNMeL]T[X1]LP[NMeY](Me); ester 3-C), the “Inhibition (%)” value in data set [1] (Dose 0.25 ng/mL) is given as 0%; in data set [1] (Dose 2.5 ng/mL), 0%; in data set [1] (Dose 25 ng/mL) it was 55%; in data set [1] (Dose 250 ng/mL), 100%. Besides, the half-inhibitory concentration (IC50) in data set [1] came to 85 ng/mL (≈ 0.0745 µM).
`CC[C@H](C)[C@H]1NC(=O)[C@@H](NC(=O)[C@@H](CC(C)C)N(C)C(=O)[C@@H]2CCCN2C(=O)[C@H](C)OC(=O)[C@H](CCC(N)=O)NC(=O)OCc2ccccc2)[C@@H](C)OC(=O)[C@H](Cc2ccc(OC)cc2)N(C)C(=O)[C@@H]2CCCN2C(=O)[C@H](CC(C)C)NC(=O)[C@@H](C)C(=O)[C@H](C(C)C)OC(=O)C[C@@H]1O` [Cbz-Gln-Didemnin B (161), N-Benzyloxycarbonyl-L-glutaminyl-didemnin B] (Cbz-Q[Lac]P[dNMeL]T[X1]LP[NMeY](Me); ester 5-C): the Activity result with HSV (10 ng/mL) is on record as “−”; with HSV (20 ng/mL), “+”; in the data set with HSV (50 ng/mL), “+”; in the data set with HSV (100 ng/mL), “+”. The “Inhibition (%)” value in data set [1] (Dose 0.25 ng/mL) amounted to 0%; in data set [1] (Dose 2.5 ng/mL), 0%; in data set [1] (Dose 25 ng/mL), 87%; in data set [1] (Dose 250 ng/mL) it was 100%. In data set [1], the IC50 was 25 ng/mL (≈ 0.0182 µM). The Cytotoxocity in the data set on CV-1 (10 ng/mL), in the data set on CV-1 (20 ng/mL), in the data set on CV-1 (50 ng/mL) and in the data set on CV-1 (100 ng/mL) was 0 throughout.
In the case of `CC[C@H](C)[C@H]1NC(=O)[C@@H](NC(=O)[C@@H](CC(C)C)N(C)C(=O)[C@@H]2CCCN2C(=O)[C@H](C)OC(=O)[C@H](CCC(N)=O)NC(=O)OCc2ccccc2)[C@@H](C)OC(=O)[C@H](Cc2ccc(OC)cc2)N(C)C(=O)[C@@H]2CCCN2C(=O)[C@H](CC(C)C)NC(=O)[C@@H](C)C(=O)[C@H](C(C)C)OC(=O)C[C@@H]1OC(=O)[C@H](CCC(N)=O)NC(=O)OCc1ccccc1` [Cbz-Gln[Cbz-GlnIst^2]DB (162), di-(benzyloxycarbonyl)glutaminyl-didemnin B], the Activity entry is on record as “+” with HSV (10 ng/mL), “+” in the data set on HSV (20 ng/mL), “+” with HSV (50 ng/mL) and “+++” with HSV (100 ng/mL). Moreover, the “Inhibition (%)” value in data set [1] (Dose 0.25 ng/mL) is 0%; in data set [1] (Dose 2.5 ng/mL), 0%; in data set [1] (Dose 25 ng/mL), 87%; in data set [1] (Dose 250 ng/mL) it was 99%. The half-inhibitory concentration (IC50) in data set [1] came out at 50 ng/mL (≈ 0.0305 µM). Besides, the Cytotoxocity with CV-1 (10 ng/mL), with CV-1 (20 ng/mL), in the data set on CV-1 (50 ng/mL) and in the data set with CV-1 (100 ng/mL) was 0 each time.
Consider `CC[C@H](C)[C@H]1NC(=O)[C@@H](NC(=O)[C@@H](CC(C)C)N(C)C(=O)[C@@H]2CCCN2C(=O)[C@H](C)OC(=O)[C@@H]2CCC(=O)N2C(=O)OCc2ccccc2)[C@@H](C)OC(=O)[C@H](Cc2ccc(OC)cc2)N(C)C(=O)[C@@H]2CCCN2C(=O)[C@H](CC(C)C)NC(=O)[C@@H](C)C(=O)[C@H](C(C)C)OC(=O)C[C@@H]1O` [Cbz-pGlu-Didemnin B (145), N-Benzyloxycarbonyl-L-pyroglutaminyl-didemnin B], for which the Activity entry is “−” in the data set with HSV (10 ng/mL), “+” in the data set on HSV (20 ng/mL), “+” in the data set on HSV (50 ng/mL) and “+” with HSV (100 ng/mL). Moreover, the “Inhibition (%)” value in data set [1] (Dose 0.25 ng/mL) was found to be 0%; in data set [1] (Dose 2.5 ng/mL), 0%; in data set [1] (Dose 25 ng/mL), 70%; in data set [1] (Dose 250 ng/mL), 100%. In data set [1], this compound yielded an IC50 of 50 ng/mL (≈ 0.0368 µM). Moreover, the Cytotoxocity with CV-1 (10 ng/mL), in the data set on CV-1 (20 ng/mL), in the data set on CV-1 (50 ng/mL) and with CV-1 (100 ng/mL) was 0 in each case.
Regarding `CC[C@H](C)[C@H]1NC(=O)[C@@H](NC(=O)[C@@H](CC(C)C)N(C)C(=O)[C@@H]2CCCN2C(=O)C(C)=O)[C@@H](C)OC(=O)[C@H](Cc2ccc(OC)cc2)N(C)C(=O)[C@@H]2CCCN2C(=O)[C@H](CC(C)C)NC(=O)[C@@H](C)C(=O)[C@H](C(C)C)OC(=O)C[C@@H]1O` [Dehydrodidemnin B (6), Dehydrodidemnin B] (Pyruvoyl-P[dNMeL]T[X1]LP[NMeY](Me); ester 3-C), the results for the Activity result in the data set with HSV (10 ng/mL) and with HSV (20 ng/mL) were “+” and “+++”, respectively. Besides, the “Inhibition (%)” value came out at 95% in data set [1] (Dose 0.25 ng/mL), 100% in data set [1] (Dose 2.5 ng/mL), 100% in data set [1] (Dose 25 ng/mL) and 100% in data set [1] (Dose 250 ng/mL). In data set [1], this compound showed a concentration for half-maximal inhibition (IC50) of 0.2 ng/mL (≈ 0.00018 µM). Further, the Cytotoxocity with CV-1 (10 ng/mL) was determined as 0; in the data set with CV-1 (20 ng/mL), 0; in the data set with CV-1 (50 ng/mL), 16; in the data set on CV-1 (100 ng/mL), 16.
For `CC[C@H](C)[C@H]1NC(=O)[C@@H](NC(=O)[C@@H](CC(C)C)N(C)C(=O)[C@@H]2CCCN2C(=O)C(C)O)[C@@H](C)OC(=O)[C@H](Cc2ccc(OC)cc2)N(C)C(=O)[C@@H]2CCCN2C(=O)[C@H](CC(C)C)NC(=O)[C@@H](C)C(=O)[C@H](C(C)C)OC(=O)C[C@@H]1O` (stereo partly shown) [Didemnin (B) (2), Didemnin B, reference compound], the Activity entry in the data set on HSV (10 ng/mL) is “+”; in the data set with HSV (20 ng/mL), “+++”; in the data set with HSV (50 ng/mL) it was “+++”. Further, the “Inhibition (%)” value in data set [1] (Dose 0.25 ng/mL) worked out at 0%; in data set [1] (Dose 2.5 ng/mL), 40%; in data set [1] (Dose 25 ng/mL), 100%; in data set [1] (Dose 250 ng/mL) it was 100%. The same compound displayed an IC50 in data set [1] of 7 ng/mL (≈ 0.00629 µM). Further, the Cytotoxocity in the data set on CV-1 (10 ng/mL) is 0; in the data set with CV-1 (20 ng/mL), 0; in the data set with CV-1 (50 ng/mL) it was 0; in the data set with CV-1 (100 ng/mL), 16.
Regarding `CC[C@H](C)[C@H]1NC(=O)[C@@H](NC(=O)[C@@H](CC(C)C)NC)[C@@H](C)OC(=O)[C@H](Cc2ccc(OC)cc2)N(C)C(=O)[C@@H]2CCCN2C(=O)[C@H](CC(C)C)NC(=O)[C@@H](C)C(=O)[C@H](C(C)C)OC(=O)C[C@@H]1O` [Didemnin A (1), Didemnin A] (H-[dNMeL]T[X1]LP[NMeY](Me); ester 2-C), the Activity entry with HSV (10 ng/mL) is on record as “−”; with HSV (20 ng/mL), “+”; in the data set on HSV (50 ng/mL), “+”; in the data set on HSV (100 ng/mL), “+”. Further, the “Inhibition (%)” value is given as 0% in data set [1] (Dose 0.25 ng/mL), 0% in data set [1] (Dose 2.5 ng/mL), 70% in data set [1] (Dose 25 ng/mL) and 100% in data set [1] (Dose 250 ng/mL). The IC50 in data set [1] worked out at 75 ng/mL (≈ 0.0795 µM). Also, the Cytotoxocity with CV-1 (10 ng/mL), in the data set on CV-1 (20 ng/mL), with CV-1 (50 ng/mL) and in the data set on CV-1 (100 ng/mL) was 0 each time.
As for `CC[C@H](C)[C@H]1NC(=O)[C@@H](NC(=O)[C@@H](CC(C)C)N(C)C(=O)[C@@H]2CCCN2)[C@@H](C)OC(=O)[C@H](Cc2ccc(OC)cc2)N(C)C(=O)[C@@H]2CCCN2C(=O)[C@H](CC(C)C)NC(=O)[C@@H](C)C(=O)[C@H](C(C)C)OC(=O)C[C@@H]1O` [Prolyl-didemnin A (43), prolyl-didemnin A] (H-P[dNMeL]T[X1]LP[NMeY](Me); ester 3-C), the “Inhibition (%)” value in data set [1] (Dose 0.25 ng/mL) came to 30%; in data set [1] (Dose 2.5 ng/mL), 40%; in data set [1] (Dose 25 ng/mL) it was 99%; in data set [1] (Dose 250 ng/mL), 100%. In data set [1], this compound yielded a half-inhibitory concentration (IC50) of 12 ng/mL (≈ 0.0115 µM).
